Each structure is given as a SMILES string.

The assay has as its target T1, Promotilin (Homo sapiens, UniProt P12872).
T1 sequence (P12872 whole entry): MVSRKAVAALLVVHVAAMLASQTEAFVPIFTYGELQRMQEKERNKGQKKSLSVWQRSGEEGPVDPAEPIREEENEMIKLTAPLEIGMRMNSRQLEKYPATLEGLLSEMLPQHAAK
The compound `CC[C@H]1OC(=O)[C@H](C)[C@@H](O[C@H]2C[C@@](C)(OC)C[C@H](C)O2)[C@H](C)[C@@H](O[C@@H]2O[C@H](C)C[C@H](N(C)CC)[C@H]2O)[C@@]2(C)CC(C)=C(O2)[C@H](C)[C@@H](O)[C@H]1C` [ABT-229] had a Ki of 58.9 nM.

`CC[C@H]1OC(=O)[C@H](C)[C@@H](O[C@H]2C[C@@](C)(OC)[C@@H](O)[C@H](C)O2)[C@H](C)[C@@H](O[C@@H]2O[C@H](C)C[C@H](N(C)C)[C@H]2O)[C@](C)(O)C[C@@H](C)C(=O)[C@H](C)[C@@H](O)[C@]1(C)O` [CAS_114-07-8] returned a Ki of 3090 nM. `CC[C@H](C)[C@H](NC(=O)[C@@H]1CCCN1C(=O)[C@@H](NC(=O)[C@@H](N)Cc1ccccc1)C(C)C)C(=O)N[C@@H](Cc1ccccc1)C(=O)N[C@H](C(=O)N[C@@H](Cc1ccc(O)cc1)C(=O)NCC(=O)N[C@@H](CCC(=O)O)C(=O)N[C@@H](CC(C)C)C(=O)N[C@@H](CCC(N)=O)C(=O)N[C@@H](CCCNC(=N)N)C(=O)N[C@@H](CCSC)C(=O)N[C@@H](CCC(N)=O)C(=O)N[C@@H](CCC(=O)O)C(=O)N[C@@H](CCCCN)C(=O)N[C@@H](CCC(=O)O)C(=O)N[C@@H](CCCNC(=N)N)C(=O)N[C@@H](CC(N)=O)C(=O)N[C@@H](CCCCN)C(=O)NCC(=O)N[C@@H](CCC(N)=O)C(=O)O)[C@@H](C)O` [CAS_52906-92-0] displayed a Ki of 2.82 nM. Compound `CC[C@H]1OC(=O)[C@H](C)[C@@H](O[C@H]2C[C@@](C)(OC)[C@@H](O)[C@H](C)O2)[C@H](C)[C@@H](O[C@@H]2O[C@H](C)C[C@H](N(C)C)[C@H]2O)[C@]2(C)CC(C)=C(O2)[C@H](C)[C@@H](O)[C@@H]1C` [EM-B enolether] displayed a Ki of 324 nM. `CC[C@H]1OC(=O)[C@H](C)[C@@H](O[C@H]2C[C@@](C)(OC)[C@@H](O)[C@H](C)O2)[C@H](C)[C@@H](O[C@@H]2O[C@H](C)C[C@H](N(C)C)[C@H]2O)[C@@]2(C)CC(C)=C(O2)[C@H](C)[C@@H](O)[C@]1(C)O` [Erythromycin-A enol ether]: the affinity corresponds to a Ki of 257 nM. `C#CCN(C)C1CC(C)OC(OC2C(C)C(OC3CC(C)(OC)C(O)C(C)O3)C(C)C(=O)OC(CC)C(C)(O)C(O)C(C)C(=O)C(C)CC2(C)O)C1O` (stereo unspecified) [ME36] yielded a Ki of over 10000 nM.

One may read the Ki as a measure of affinity in units of concentration, obtained from inhibition or displacement.

Source of the values: BindingDB's records for doi:10.1124/jpet.104.081497 (Katholieke Universiteit Leuven, 2005).
